# US20160367557A1, “HE[…] ACID DERIVATIVES WHICH ARE USEFUL IN THE TREATMENT, AMELIORATION OR PREVENTION OF A VIRAL DISEASE” (Savira pharmaceuticals GmbH, priority 2012, published 2016)
# System: not given
# Experiment: not given
# Conditions: not given
row,SMILES,melting point
1,O=C(O)c1cn(CCc2cccc(C(F)(F)F)c2)c2cc(C3CC3)nn2c1=O,200 to 205 °C
2,CCOC(=O)c1c[nH]c2cc(C(=O)NCc3ccccc3)nn2c1=O,290 to 292 °C
3,O=C(O)c1cn(CCc2ccc(Cl)cc2)c2cc(C3CC3)nn2c1=O,220 to 225 °C
4,O=C(O)c1c[nH]c2cc(C3CC3)nn2c1=O,275 to 278 °C
5,O=C(O)c1cn(Cc2ccccc2)c2cc(C3CC3)nn2c1=O,210 to 215 °C
6,O=C(O)c1cn(CCc2ccc(C(F)(F)F)cc2)c2cc(C3CC3)nn2c1=O,225 to 230 °C
7,CCOC(=O)c1c[nH]c2nc(NCc3cccc4ccccc34)nn2c1=O,273 to 275 °C
8,CCOC(=O)c1cn(CCc2cccc(Cl)c2)c2cc(C3CC3)nn2c1=O,160 to 165 °C
9,O=C(O)Cc1c[nH]c2nc(Nc3ccccc3)nn2c1=O,279 to 281 °C
10,O=C(O)c1cn(CCc2cccc(F)c2)c2cc(C3CC3)nn2c1=O,220 to 225 °C
11,CCOC(=O)c1c[nH]c2c(C#N)c(CCCNC)nn2c1=O,285 to 287 °C
12,CCOC(=O)c1cn(CCCc2ccccc2)c2cc(C3CC3)nn2c1=O,150 to 155 °C
13,CCOC(=O)Cc1c[nH]c2nc(Nc3ccccc3)nn2c1=O,255 to 257 °C
14,CCOC(=O)c1cn(CCc2ccccc2)c2cc(C3CCCC3)nn2c1=O,162 to 164 °C
15,O=C(O)c1cn(CCc2ccccc2)c2cc(C3CC3)nn2c1=O,185 to 190 °C
16,CCOC(=O)c1cn(CCc2ccc(Cl)cc2)c2cc(C3CC3)nn2c1=O,190 to 195 °C
17,CCOC(=O)Cc1c[nH]c2cc(C3CC3)nn2c1=O,280 to 283 °C
18,O=C(O)c1c[nH]c2nc(NCc3cccc4ccccc34)nn2c1=O,245 to 250 °C
19,O=C(O)Cc1c[nH]c2cc(C(F)(F)F)nn2c1=O,320 to 324 °C
20,O=C(O)c1c[nH]c2nc(NCc3ccccc3)nn2c1=O,240 to 245 °C
21,CCOC(=O)c1c[nH]c2cc(C(=O)NC3CCN(Cc4ccccc4)CC3)nn2c1=O,264 to 266 °C
22,CCOC(=O)c1cn(Cc2ccccc2)c2cc(C(C)C)nn2c1=O,135 to 140 °C

row,SMILES,melting point
1,O=C(O)c1cn(CCc2ccc(O)cc2)c2cc(C3CC3)nn2c1=O,265 to 270 °C
2,CCOC(=O)c1cn(Cc2ccccc2)c2cc(C3CC3)nn2c1=O,160 to 165 °C
3,CCOC(=O)c1cn(CCc2ccc(OC)cc2)c2cc(C3CC3)nn2c1=O,160 to 165 °C
4,CCOC(=O)c1c[nH]c2cc(C(=O)NCCc3ccc(Cl)cc3)nn2c1=O,> 300 °C
5,O=C(O)Cc1c[nH]c2cc(C3CC3)nn2c1=O,> 300 °C
6,O=C(O)c1cn(CCc2ccccc2)c2cc(C3CCCC3)nn2c1=O,198 to 200 °C
7,O=C(O)c1cn(CCc2cccc(Cl)c2)c2cc(C3CC3)nn2c1=O,230 to 235 °C
8,O=C(O)c1cn(CCCc2ccccc2)c2cc(C3CC3)nn2c1=O,95 to 100 °C
9,O=C(NCCc1ccc(Cl)cc1)c1cc2[nH]cc(C(=O)O)c(=O)n2n1,> 300 °C
10,CCOC(=O)c1c[nH]c2nc(NCc3ccc(Br)cc3)nn2c1=O,286 to 287 °C
11,O=C(O)c1c[nH]c2cc(C(F)(F)F)nn2c1=O,> 340 °C
12,CCOC(=O)Cc1c[nH]c2cc(C(F)(F)F)nn2c1=O,290 to 293 °C
13,O=C(O)c1cn(Cc2ccccc2)c2cc(C3CCCC3)nn2c1=O,213 to 215 °C
14,CCOC(=O)c1cn(CCc2ccccc2)c2cc(C(C)C)nn2c1=O,130 to 135 °C
15,CCOC(=O)c1cn(CCc2ccc(O)cc2)c2cc(C3CC3)nn2c1=O,95 to 100 °C
16,CCOC(=O)c1c[nH]c2nc(Nc3ccc(NC(C)=O)cc3)nn2c1=O,> 330 °C
17,CCOC(=O)Cc1cn(C)c2cc(C3CC3)nn2c1=O,147 to 150 °C
18,CCOC(=O)c1c[nH]c2nc(Nc3ccc(C)c(Cl)c3)nn2c1=O,> 340 °C
19,CCOC(=O)c1cn(Cc2ccccc2)c2cc(C3CCCC3)nn2c1=O,148 to 150 °C
20,CCOC(=O)Cc1c[nH]c2cc(-c3ccccc3)nn2c1=O,245 to 250 °C
21,CCOC(=O)c1c[nH]c2nc(NCc3ccccc3)nn2c1=O,275 to 278 °C
22,CC(C)c1cc2n(Cc3ccccc3)cc(C(=O)O)c(=O)n2n1,180 to 185 °C

# System: influenza A virus (IAV) A/Aichi/2/68 (H3N2)
# Experiment: Cytopathic effect (CPE) assay
# Format: cell-based
# Conditions: Influenza A virus, H3N2; MDCK cells, 48 hrs
row,SMILES,IC50
1,O=C(O)c1cn(Cc2ccccc2-c2ccccc2)c2sc(O)nc2c1=O,33 µM
2,COc1ccc(S(=O)(=O)Nc2nc3c(=O)c(C(=O)O)cn(Cc4ccccc4-c4ccccc4)c3s2)cc1,15 µM
3,CCOC(=O)c1cn(C(c2ccccc2)c2ccccc2)c2sc(NS(=O)(=O)c3ccc(OC)cc3)nc2c1=O,36 µM
4,O=C(O)c1cn(C(c2ccccc2)c2ccccc2)c2sc(O)nc2c1=O,47 µM
5,CCOC(=O)c1cn(C(c2ccccc2)c2ccccc2)c2sc(NCc3cccc(Cl)c3)nc2c1=O,27 µM
6,O=C(O)c1cn(Cc2ccccc2-c2ccccc2)c2sc(NS(=O)(=O)Cc3ccc(Cl)cc3Cl)nc2c1=O,20 µM
7,CC(Nc1nc2c(=O)c(C(=O)O)cn(Cc3ccccc3-c3ccccc3)c2s1)c1ccccc1 (stereo not shown),24 µM
8,COc1ccc(CNc2nc3c(=O)c(C(=O)O)cn(Cc4ccc(Cl)cc4-c4ccccc4)c3s2)cc1,22 µM
9,O=C(O)c1cn(Cc2ccccc2-c2ccccc2)c2sc(NCc3ccc(Cl)cc3)nc2c1=O,9.3 µM
10,O=C(O)c1cn(C(c2ccccc2)c2ccccc2)c2sc(NCc3ccccc3)nc2c1=O,14 µM
11,O=C(O)c1cn(Cc2ccc(Cl)cc2-c2ccccc2)c2sc(O)nc2c1=O,18 µM
12,O=C(O)c1cn(Cc2ccccc2-c2ccccc2)c2sc(NC3CC3)nc2c1=O,31 µM
13,O=C(O)c1cn(Cc2ccccc2-c2ccccc2)c2sc(NS(=O)(=O)c3ccc(Cl)cc3F)nc2c1=O,11 µM
14,CCOC(=O)c1cn(C(c2ccccc2)c2ccccc2)c2sc(NCc3ccc(Cl)cc3)nc2c1=O,45 µM
15,O=C(O)c1cn(Cc2ccccc2-c2ccccc2)c2sc(NCc3ccccc3)nc2c1=O,19 µM
16,O=C(O)c1cn(C(c2ccccc2)c2ccccc2)c2sc(NCc3cccc(Cl)c3)nc2c1=O,32 µM
17,O=C(O)c1cn(Cc2ccccc2-c2ccccc2)c2sc(NCc3cccc(Cl)c3)nc2c1=O,12 µM
18,O=C(O)c1cn(C(c2ccccc2)c2ccccc2)c2sc(NS(=O)(=O)c3ccc(Cl)cc3F)nc2c1=O,26 µM
19,CCOC(=O)c1cn(Cc2ccccc2-c2ccccc2)c2sc(NS(=O)(=O)c3ccc(Cl)cc3)nc2c1=O,23 µM
20,COc1ccc(S(=O)(=O)Nc2nc3c(=O)c(C(=O)O)cn(Cc4ccccc4-c4ccc(Cl)cc4)c3s2)cc1,8.9 µM
21,O=C(O)c1cn(Cc2ccccc2-c2ccccc2)c2sc(NS(=O)(=O)c3cccc(F)c3)nc2c1=O,19 µM
22,O=C(O)c1cn(Cc2ccccc2-c2ccccc2)c2sc(NS(=O)(=O)c3ccccc3)nc2c1=O,17 µM
23,COc1ccc(S(=O)(=O)Nc2nc3c(=O)c(C(=O)O)cn(C(c4ccccc4)c4ccccc4)c3s2)cc1,31 µM
24,N#Cc1ccc(S(=O)(=O)Nc2nc3c(=O)c(C(=O)O)cn(Cc4ccccc4-c4ccc(Cl)cc4)c3s2)cc1,14 µM
25,COc1ccc(CNc2nc3c(=O)c(C(=O)O)cn(Cc4ccccc4-c4ccccc4)c3s2)cc1,11 µM

# Same assay, conditions: MDCK cells, 48 hrs
row,SMILES,CPE activity in words
1,CNc1nc2c(=O)c(C(=O)O)cn(Cc3ccccc3-c3ccccc3)c2s1,inactive
2,O=C(O)c1cn(Cc2ccccc2-c2ccccc2)c2scnc2c1=O,inactive
3,Nc1cc2n(C(=O)C3(c4ccccc4)CCCC3)cc(C(=O)O)c(=O)n2n1 [drawing 213],inactive
4,Nc1cc2n(Cc3ccccc3-c3ccccc3)cc(C(=O)O)c(=O)n2n1,inactive
5,COc1ccc(CCn2cc(C(=O)O)c(=O)n3nc(C4CC4)cc23)cc1 [drawing 223],inactive
6,O=C(O)c1c[nH]c2nc(NCc3ccccc3)nn2c1=O [drawing 211],inactive
7,O=C(O)c1c[nH]c2cc(C3CCCC3)nn2c1=O,inactive
8,CC(C)Nc1nc2c(=O)c(C(=O)O)cn(Cc3ccccc3-c3ccccc3)c2s1,inactive
9,CC(C)c1cc2n(CCCc3ccccc3)cc(C(=O)O)c(=O)n2n1,inactive
10,CCOC(=O)c1cn(CCc2ccc(O)cc2)c2cc(C3CC3)nn2c1=O [drawing 220],inactive
11,CS(=O)(=O)n1cc(C(=O)O)c(=O)n2nc(N)cc12,inactive
12,CC(C)c1cc2[nH]cc(C(=O)O)c(=O)n2n1,inactive
13,Nc1cc2n(S(=O)(=O)Cc3ccccc3)cc(C(=O)O)c(=O)n2n1,inactive
14,O=C(O)c1cn(CCc2cccc(F)c2)c2cc(C3CC3)nn2c1=O [drawing 216],inactive
15,CS(=O)(=O)Nc1nc2c(=O)c(C(=O)O)cn(Cc3ccccc3-c3ccccc3)c2s1,inactive
16,O=C(O)c1cn(CCc2ccc(O)cc2)c2cc(C3CC3)nn2c1=O [drawing 222],inactive
17,Nc1nc2c(=O)c(C(=O)O)cn(Cc3ccccc3-c3ccccc3)c2s1,inactive
18,O=C(O)c1cn(CCc2ccccc2)c2cc(C3CCCC3)nn2c1=O [drawing 218],inactive
19,O=C(O)c1cn(CCc2cccc(C(F)(F)F)c2)c2cc(C3CC3)nn2c1=O [drawing 221],inactive
20,COCCNc1nc2c(=O)c(C(=O)O)cn(Cc3ccccc3-c3ccccc3)c2s1,inactive
21,O=C(O)c1cn(CCc2cccc(Cl)c2)c2cc(C3CC3)nn2c1=O [drawing 215],inactive
22,Nc1cc2n(S(=O)(=O)c3ccccc3)cc(C(=O)O)c(=O)n2n1,inactive
23,O=C(O)c1cn(Cc2ccccc2-c2ccccc2)c2ccnn2c1=O,inactive
24,O=C(O)c1c[nH]c2ccnn2c1=O [drawing 207],inactive
25,O=C(O)c1cn(Cc2ccccc2-c2ccccc2)c2sc(N3CCOCC3)nc2c1=O,inactive
